# Test results published in ChEMBL document CHEMBL1130940, “Combinatorial chemistry: from peptides and peptidomimetics to small organic and heterocyclic compounds” (Bioorg Med Chem Lett, 1998).
# Biological target: Sigma non-opioid intracellular receptor 1 (Homo sapiens, UniProt Q99720)
# Assay: Binding affinity for [3H]- pentazocine at sigma opioid receptor
# Chain of Sigma non-opioid intracellular receptor 1 (Q99720 whole entry): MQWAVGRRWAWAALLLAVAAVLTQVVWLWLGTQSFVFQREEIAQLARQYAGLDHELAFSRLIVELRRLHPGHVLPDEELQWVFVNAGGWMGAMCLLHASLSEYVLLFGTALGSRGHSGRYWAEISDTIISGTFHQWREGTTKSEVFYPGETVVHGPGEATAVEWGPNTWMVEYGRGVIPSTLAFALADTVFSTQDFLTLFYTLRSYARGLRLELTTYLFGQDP
row,Ki [nM],SMILES
1,435,CCC[C@H](C(=O)NCc1ccccc1)N1C(=O)[C@@H](CCCN)N(Cc2ccccc2)C1=O
2,333,CC[C@H](C)[C@H](C(=O)NCc1ccccc1)N1C(=O)[C@@H](CCCN)N(Cc2ccccc2)C1=O
3,3630,NCCCCC[C@@H]1C(=O)N([C@H](CC2CCCCC2)C(N)=O)C(=O)N1Cc1ccccc1
4,2420,CCC[C@H](C(=O)NCc1ccccc1)N1C(=O)[C@@H](CCCCCN)N(Cc2ccccc2)C1=O
5,125,CC[C@@H](C)[C@H](C(=O)NCc1ccccc1)N1C(=O)[C@@H](CCCCN)N(Cc2ccccc2)C1=O
6,62,CC[C@H](C)[C@@H](C(=O)NCc1ccccc1)N1C(=O)[C@@H](CCCCN)N(Cc2ccccc2)C1=O
7,406,NCCC[C@H]1C(=O)N([C@H](CC2CCCCC2)C(N)=O)C(=O)N1Cc1ccccc1
8,64,CCC[C@H](C(=O)NCc1ccccc1)N1C(=O)[C@H](CCCCN)N(Cc2ccccc2)C1=O
9,80,CCC[C@H](C(=O)NCc1ccccc1)N1C(=O)[C@@H](CCCCN)N(Cc2ccccc2)C1=O
10,4610,CC[C@H](C)[C@H](C(=O)NCc1ccccc1)N1C(=O)[C@@H](CCCCCN)N(Cc2ccccc2)C1=O
11,189,NCCCC[C@@H]1C(=O)N([C@H](CC2CCCCC2)C(N)=O)C(=O)N1Cc1ccccc1
12,254,NCCCC[C@@H]1C(=O)N([C@@H](CC2CCCCC2)C(N)=O)C(=O)N1Cc1ccccc1
